This note sets out measurements from US8940756B2, “Dihydronaphthyridines and related compounds useful as kinase inhibitors for the treatment of proliferative diseases” (Deciphera Pharmaceuticals, Inc., priority 2012, dated 2015).

In assay [1] the target is Phospho-KIT (Tyr719) in GIST48 cells (Homo sapiens, UniProt P10721). As to the kind of experiment: GIST48 KIT Western Blot. It counts as cell-based. The note with it: 4 hours, read-out: pKIT suppression by western blot analysi GIST48. The protocol:
(§1) GIST48, GIST430, and GIST882 cells were obtained from J. Fletcher (Brigham and Women's Hospital, Boston, Mass.). GIST T1 cells were obtained from B. Rubin (Cleveland Clinic, Cleveland, Ohio) and Professor Takahiro Taguchi (Kochi Medical School, Nankoku, Kochi, Japan). […] GIST430 cells were grown in Ham's F10 medium supplemented with 15% characterized fetal bovine serum (Invitrogen, Carlsbad, Calif.), 30 mg/L bovine pituitary extract (BD Biosciences, San Jose, Calif.), 0.5% Mito+ serum extender (BD Biosciences, San Jose, Calif.), 1 unit/mL penicillin G, 1 μg/ml streptomycin, and 0.29 mg/mL L-glutamine at 37° C., 5% CO2, 95% humidity. GIST T1 cells were grown in DMEM medium supplemented with 10% characterized fetal bovine serum (Invitrogen, Carlsbad, Calif.), 1 unit/mL penicillin G, 1 ng/ml streptomycin, and 0.29 mg/mL L-glutamine at 37° C., 5% CO2, and 95% humidity. Cells were allowed to expand until reaching 70-95% confluence at which point they were subcultured or harvested for assay use.
(§2) Two hundred fifty thousand cells were added per well in a 24-well tissue-culture treated plate. Cells were then incubated overnight at 37° C., 5% CO2, 95% humidity. Medium was aspirated, cells were washed with PBS, and serum-free RPMI1640 medium was added. A serial dilution of test compound was added to plates containing cells and plates were incubated for 4 hours at 37° C., 5% CO2, 95% humidity. Cells were washed with PBS, then lysed. Cell lysates were separated by SDS-PAGE and transferred to PVDF. Phospho-KIT (Tyr719) was detected using an antibody from Cell Signaling Technology (Beverly, Mass.), ECL Plus detection reagent (GE Healthcare, Piscataway, N.J.) and a Molecular Devices Storm 840 phosphorimager in fluorescence mode. Blots were stripped and probed for total KIT using an antibody from Santa Cruz Biotech (Santa Cruz, Calif.). IC50 values were calculated using Prism software (Graphpad, San Diego, Calif.).
On the technique in general: In western blotting, separated proteins are transferred to a membrane and probed.

The target of assay [2] is Phospho-KIT (Tyr719) in GIST430 cells (Homo sapiens, UniProt P10721). As to the kind of experiment: GIST430 KIT Western Blot. It counts as cell-based. The note with it: 4 hours, read-out: pKIT suppression by western blot analysi GIST430. As for the experimental part:
as §1
as §2, with “One” for “Two”, “Ham's F10” for “RPMI1640”

SMILES strings stand for the structures.

Chain of Phospho-KIT (Tyr719) in GIST430 cells (P10721 with tags, fused parts or gaps DEL560-576/V654A, form open): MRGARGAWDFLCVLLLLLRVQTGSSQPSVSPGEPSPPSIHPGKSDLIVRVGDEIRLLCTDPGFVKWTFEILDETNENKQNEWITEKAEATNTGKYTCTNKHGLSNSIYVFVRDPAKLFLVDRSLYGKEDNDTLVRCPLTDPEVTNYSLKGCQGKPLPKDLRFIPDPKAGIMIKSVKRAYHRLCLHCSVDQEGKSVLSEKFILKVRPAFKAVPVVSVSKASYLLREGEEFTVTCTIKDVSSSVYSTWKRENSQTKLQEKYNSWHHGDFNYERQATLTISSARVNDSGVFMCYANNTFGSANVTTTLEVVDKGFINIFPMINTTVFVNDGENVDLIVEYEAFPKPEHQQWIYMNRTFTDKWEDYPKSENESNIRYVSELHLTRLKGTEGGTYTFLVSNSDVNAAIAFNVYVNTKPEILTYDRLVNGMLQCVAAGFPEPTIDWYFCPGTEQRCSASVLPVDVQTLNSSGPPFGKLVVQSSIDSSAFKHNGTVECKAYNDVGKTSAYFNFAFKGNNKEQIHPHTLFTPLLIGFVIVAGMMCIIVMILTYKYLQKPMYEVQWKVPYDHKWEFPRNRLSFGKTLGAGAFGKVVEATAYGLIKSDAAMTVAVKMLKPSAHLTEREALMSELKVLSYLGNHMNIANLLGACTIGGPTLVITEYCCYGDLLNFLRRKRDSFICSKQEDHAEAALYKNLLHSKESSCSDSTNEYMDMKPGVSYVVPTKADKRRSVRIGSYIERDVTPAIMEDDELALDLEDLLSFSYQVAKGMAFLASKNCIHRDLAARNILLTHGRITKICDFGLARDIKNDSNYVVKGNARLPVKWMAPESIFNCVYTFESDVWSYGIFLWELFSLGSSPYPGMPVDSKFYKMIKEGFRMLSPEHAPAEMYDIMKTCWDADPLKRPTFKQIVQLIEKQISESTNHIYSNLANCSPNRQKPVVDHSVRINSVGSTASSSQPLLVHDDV
Chain of Phospho-KIT (Tyr719) in GIST48 cells (P10721 whole entry V560D/D820A, form open): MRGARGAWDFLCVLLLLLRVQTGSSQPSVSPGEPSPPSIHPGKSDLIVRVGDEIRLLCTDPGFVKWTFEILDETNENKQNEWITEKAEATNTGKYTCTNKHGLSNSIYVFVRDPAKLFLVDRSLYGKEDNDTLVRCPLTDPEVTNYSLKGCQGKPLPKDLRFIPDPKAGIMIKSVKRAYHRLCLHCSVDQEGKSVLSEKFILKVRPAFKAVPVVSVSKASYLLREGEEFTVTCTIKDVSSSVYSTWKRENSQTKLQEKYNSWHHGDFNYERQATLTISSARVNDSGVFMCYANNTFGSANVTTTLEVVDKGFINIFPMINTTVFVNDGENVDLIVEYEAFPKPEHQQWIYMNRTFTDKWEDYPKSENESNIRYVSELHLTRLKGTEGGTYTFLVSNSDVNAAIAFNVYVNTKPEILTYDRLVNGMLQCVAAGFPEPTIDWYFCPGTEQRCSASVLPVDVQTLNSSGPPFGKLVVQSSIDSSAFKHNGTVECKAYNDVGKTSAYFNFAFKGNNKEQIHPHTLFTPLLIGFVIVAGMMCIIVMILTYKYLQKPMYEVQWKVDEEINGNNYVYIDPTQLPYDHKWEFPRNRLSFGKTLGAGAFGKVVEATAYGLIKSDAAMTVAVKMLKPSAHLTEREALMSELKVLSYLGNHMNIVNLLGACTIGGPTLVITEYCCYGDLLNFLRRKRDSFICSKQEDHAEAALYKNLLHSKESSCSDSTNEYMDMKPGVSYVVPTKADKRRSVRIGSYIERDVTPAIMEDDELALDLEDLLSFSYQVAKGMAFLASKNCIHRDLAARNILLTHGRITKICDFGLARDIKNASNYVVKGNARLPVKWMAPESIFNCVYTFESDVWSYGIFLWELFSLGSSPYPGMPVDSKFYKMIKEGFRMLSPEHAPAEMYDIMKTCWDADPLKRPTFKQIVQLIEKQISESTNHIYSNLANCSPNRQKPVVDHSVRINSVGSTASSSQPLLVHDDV

As for `CCn1c(=O)c(-c2cc(NC(=O)Nc3cccc(F)c3)c(F)cc2Cl)cc2cnc(N)cc21` [Example 20, 1-(5-(7-amino-1-ethyl-2-oxo-1,2-dihydro-1,6-naphthyridin-3-yl)-4-chloro-2-fluorophenyl)-3-(3-fluorophenyl)urea], the IC50 in assay [1] is 100 to 1000 nM; in assay [2], 10 to 100 nM.

For the molecule `CNc1cc2c(cn1)cc(-c1cc(NC(=O)Nc3cccc(F)c3)c(F)cc1Cl)c(=O)n2C(C)C` [Example 77, 1-(4-chloro-2-fluoro-5-(1-isopropyl-7-(methylamino)-2-oxo-1,2-dihydro-1,6-naphthyridin-3-yl)phenyl)-3-(3-fluorophenyl)urea], the IC50 in assay [1] and in assay [2] was 10 to 100 nM each time.

Regarding `CNc1cc2c(cn1)cc(-c1cc(NC(=O)Nc3cccc(F)c3)c(F)cc1C)c(=O)n2C(C)C` [Example 41, 1-(2-fluoro-5-(1-isopropyl-7-(methylamino)-2-oxo-1,2-dihydro-1,6-naphthyridin-3-yl)-4-methylphenyl)-3-(3-fluorophenyl)urea], the IC50 lay in the range of 100 to 1000 nM in assay [1] and 10 to 100 nM in assay [2].

In the case of `CCn1c(=O)c(-c2cc(NC(=O)Nc3ccccc3)c(F)cc2Br)cc2cnc(NCCOC)cc21` [Example 51, 1-(4-bromo-5-(1-ethyl-7-(2-methoxyethylamino)-2-oxo-1,2-dihydro-1,6-naphthyridin-3-yl)-2-fluorophenyl)-3-phenylurea], the IC50 in assay [1] is 100 to 1000 nM; in assay [2] it was 10 to 100 nM.

As to `CCn1c(=O)c(-c2cc(NC(=O)Nc3cccc4ccccc34)c(F)cc2Cl)cc2cnc(NC)cc21` [Example 6, 1-(4-chloro-5-(1-ethyl-7-(methylamino)-2-oxo-1,2-dihydro-1,6-naphthyridin-3-yl)-2-fluorophenyl)-3-(naphthalen-1-yl)urea], the IC50 in assay [1] and in assay [2] was below 10 nM each time.

In the case of `CCn1c(=O)c(-c2cc(NC(=O)Nc3ccc(F)c(CN4CCN(C)CC4)c3)c(F)cc2Cl)cc2cnc(NC)cc21` [Example 87], the figures for the IC50 in assay [1] and in assay [2] were 10 to 100 nM and 100 to 1000 nM, respectively.

In the case of `CCn1c(=O)c(-c2cc(NC(=O)Nc3csc4ccccc34)c(F)cc2C)cc2cnc(NC)cc21` [Example 59, 1-(benzo[b]thiophen-3-yl)-3-(5-(1-ethyl-7-(methylamino)-2-oxo-1,2-dihydro-1,6-naphthyridin-3-yl)-2-fluoro-4-methylphenyl)urea], the IC50 in assay [1] and in assay [2] was 10 to 100 nM each time.

Take `CCn1c(=O)c(-c2cc(NC(=O)Nc3ccccc3)c(F)cc2Cl)cc2cnc(NC(=O)N3CC(N(C)C)C3)cc21` [Example 102, N-(3-(2-chloro-4-fluoro-5-(3-phenylureido)phenyl)-1-ethyl-2-oxo-1,2-dihydro-1,6-naphthyridin-7-yl)-3-(dimethylamino)azetidine-1-carboxamide]: the IC50 in assay [1] and in assay [2] was 10 to 100 nM in each case.

Regarding `CCn1c(=O)c(-c2cc(NC(=O)Nc3ccccc3)c(F)cc2F)cc2cnc(NCCOC)cc21` [Example 36, 1-(5-(1-ethyl-7-(2-methoxyethylamino)-2-oxo-1,2-dihydro-1,6-naphthyridin-3-yl)-2,4-difluorophenyl)-3-phenylurea], the IC50 in assay [1] and in assay [2] was 100 to 1000 nM throughout.

`CCn1c(=O)c(-c2cc(NC(=O)Nc3ccccc3)c(F)cc2Cl)cc2cnc(NC(=O)N3CC[C@@H](N(C)C)C3)cc21` [Example 84, (R)—N-(3-(2-chloro-4-fluoro-5-(3-phenylureido)phenyl)-1-ethyl-2-oxo-1,2-dihydro-1,6-naphthyridin-7-yl)-3-(dimethylamino)pyrrolidine-1-carboxamide]: the IC50 in assay [1] and in assay [2] was 10 to 100 nM in each case.

As for `CCn1c(=O)c(-c2cc(NC(=O)Nc3cc(F)cc(F)c3)c(F)cc2C)cc2cnc(NC)cc21` [Example 60, 1-(3,5-difluorophenyl)-3-(5-(1-ethyl-7-(methylamino)-2-oxo-1,2-dihydro-1,6-naphthyridin-3-yl)-2-fluoro-4-methylphenyl)urea], the IC50 in assay [1] was above 1000 nM; in assay [2], 10 to 100 nM.

For `CCn1c(=O)c(-c2cc(NC(=O)Nc3cccc(F)c3)c(F)cc2F)cc2cnc(NC)cc21` [Example 15, 1-(5-(1-ethyl-7-(methylamino)-2-oxo-1,2-dihydro-1,6-naphthyridin-3-yl)-2,4-difluorophenyl)-3-(3-fluorophenyl)urea], the IC50 in assay [1] and in assay [2] was 10 to 100 nM in each case.

`CCn1c(=O)c(-c2cc(NC(=O)Nc3cccc(F)c3)c(F)cc2C)cc2cnc(NC)cc21` [Example 44, 1-(5-(1-ethyl-7-(methylamino)-2-oxo-1,2-dihydro-1,6-naphthyridin-3-yl)-2-fluoro-4-methylphenyl)-3-(3-fluorophenyl)urea]: the values for the IC50 in assay [1] and in assay [2] were 10 to 100 nM and below 10 nM, respectively.

`CCn1c(=O)c(-c2cc(NC(=O)Nc3cccc(F)c3)c(F)cc2Br)cc2cnc(NC)cc21` [Example 50, 1-(4-bromo-5-(1-ethyl-7-(methylamino)-2-oxo-1,2-dihydro-1,6-naphthyridin-3-yl)-2-fluorophenyl)-3-(3-fluorophenyl)urea]: the IC50 was 100 to 1000 nM in assay [1] and below 10 nM in assay [2].

Take `CNc1cc2c(cn1)cc(-c1cc(NC(=O)Nc3csc4ccccc34)c(F)cc1F)c(=O)n2C` [Example 14, 1-(benzo[b]thiophen-3-yl)-3-(2,4-difluoro-5-(1-methyl-7-(methylamino)-2-oxo-1,2-dihydro-1,6-naphthyridin-3-yl)phenyl)urea]: the values for the IC50 in assay [1] and in assay [2] were below 10 nM and 10 to 100 nM, respectively.

Regarding `CCn1c(=O)c(-c2cc(NC(=O)Nc3ccccc3)ccc2Cl)cc2cnc(NC)cc21` [Example 33, 1-(4-chloro-3-(1-ethyl-7-(methylamino)-2-oxo-1,2-dihydro-1,6-naphthyridin-3-yl)phenyl)-3-phenylurea], in assay [2], the IC50 lay in the range of 10 to 100 nM.

For the molecule `CCn1c(=O)c(-c2cc(NC(=O)Nc3ccccc3)c(F)cc2C)cc2cnc(NC(=O)N3CCC3)cc21` [Example 110, N-(1-ethyl-3-(4-fluoro-2-methyl-5-(3-phenylureido)phenyl)-2-oxo-1,2-dihydro-1,6-naphthyridin-7-yl)azetidine-1-carboxamide], the IC50 in assay [1] is below 10 nM.

For the molecule `CCn1c(=O)c(-c2cc(NC(=O)Nc3cc(F)ccc3F)c(F)cc2C)cc2cnc(NC)cc21` [Example 61, 1-(2,5-difluorophenyl)-3-(5-(1-ethyl-7-(methylamino)-2-oxo-1,2-dihydro-1,6-naphthyridin-3-yl)-2-fluoro-4-methylphenyl)urea], the figures for the IC50 in assay [1] and in assay [2] were above 1000 nM and 10 to 100 nM, respectively.

In the case of `CCn1c(=O)c(-c2cc(NC(=O)Nc3ccccc3)c(F)cc2Br)cc2cnc(N)cc21` [Example 57, 1-(5-(7-amino-1-ethyl-2-oxo-1,2-dihydro-1,6-naphthyridin-3-yl)-4-bromo-2-fluorophenyl)-3-phenylurea], the IC50 lay within 100 to 1000 nM in assay [1] and 10 to 100 nM in assay [2].

For `CCn1c(=O)c(-c2cc(NC(=O)Nc3ccccc3)c(F)cc2Cl)cc2cnc(NC(C)=O)cc21` [Example 54, 1-(5-(7-acetamido-1-ethyl-2-oxo-1,2-dihydro-1,6-naphthyridin-3-yl)-4-chloro-2-fluorophenyl)-3-phenylurea], the IC50 in assay [1] and in assay [2] was 10 to 100 nM each time.
